From patent US12503438B2, “Compounds for the treatment of kinase-dependent disorders” (Exelixis, Inc., priority 2019, dated 2025) come the findings set out here.

The structures appear in SMILES notation. Bounds are passed on as bounds.

One assay addresses KDR (Homo sapiens, UniProt P35968). Kind of assay: Human KDR kinase assay (33P-phosphoryl transfer radiometric, KinaseProfiler). Also noted: Human KDR (residues K790-V1356, 55 nM); purchased Eurofins Pharma Discovery Services UK Limited (KinaseProfiler service). The settings on record: biochemical activity; 10 μM ATP. On the procedure: (§1) Kinase activity and compound inhibition were investigated using the ^33P-Phosphoryl transfer radiometric kinase assay, performed using the KinaseProfiler™ service of Eurofins Pharma Discovery Services UK Limited. Dose-response experiments were performed using nine compound concentrations in a 96-well microtiter plate. For each assay, all compounds were prepared to a 50× final assay concentration (50 μM) in 100% DMSO, then diluted in a half-log series, with the final top concentration at 1 μM. This working stock of the compound was added to the assay well as the first component in the reaction, followed by the remaining components as detailed in the following assay protocols below. The positive control wells (100% kinase activity) contain all components of the reaction including 2% DMSO (control for solvent effects), except the compound of interest. Blank wells contain all components of the reaction, with the reference inhibitor, staurosporine. This reference compound was used to abolish kinase activity and generated the 0% kinase activity base-line. IC50 values were calculated by nonlinear regression analysis using the sigmoidal dose-response (variable slope) curve fit on XLFit version 5.3 (ID Business Solutions).
(§2) Human KDR (residues K790-V1356, 55 nM) was incubated with 8 mM MOPS pH 7.0, 0.2 mM EDTA, 0.33 mg/mL myelin basic protein, 10 mM magnesium acetate, and 10 μM [γ-^33P-ATP]. The reaction was initiated by the addition of the Mg/ATP mix. After incubation for 40 minutes at room temperature, the reaction was stopped by the addition of phosphoric acid to a concentration of 0.5%. A reaction aliquot of 10 μL was then spotted onto a P30 filtermat and washed four times for 4 minutes in 0.425% phosphoric acid and once in methanol prior to drying and scintillation counting. Incorporated ^33P was measured using the Wallac Microbeta scintillation counter (Perkin Elmer).

The target of a further assay is T1, Human Axl (Homo sapiens, UniProt P30530, Q764R).
T1 construct: Human Axl (residues H473-A894 with Q764R, 161 nM); purchased Eurofins Pharma Discovery Services UK Limited (KinaseProfiler service)
T1 sequence (P30530 473-894 Q764R): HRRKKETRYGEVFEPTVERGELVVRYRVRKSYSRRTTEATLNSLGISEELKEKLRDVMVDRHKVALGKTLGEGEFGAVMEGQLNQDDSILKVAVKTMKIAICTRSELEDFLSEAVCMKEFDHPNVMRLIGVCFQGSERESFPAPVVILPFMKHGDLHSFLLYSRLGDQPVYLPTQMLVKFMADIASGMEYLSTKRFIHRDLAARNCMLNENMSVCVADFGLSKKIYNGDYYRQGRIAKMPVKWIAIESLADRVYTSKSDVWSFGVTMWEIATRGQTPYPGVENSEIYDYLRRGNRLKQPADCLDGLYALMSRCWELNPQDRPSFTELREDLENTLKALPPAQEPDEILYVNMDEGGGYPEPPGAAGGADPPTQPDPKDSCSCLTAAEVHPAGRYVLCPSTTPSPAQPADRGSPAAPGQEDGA
As to the kind of experiment: Human AXL kinase assay (33P-phosphoryl transfer radiometric, KinaseProfiler). The following applies: biochemical activity; 10 μM ATP. The procedure:
as §1
as §2, with “Axl” for “KDR”, “H473-A894 with Q764R, 161” for “K790-V1356, 55”, “250 μM KKSRGDYMTMQIG,” for “0.33 mg/mL myelin basic protein,”, “[y-^33P-ATP].” for “[γ-^33P-ATP].”

KDR, sequence (P35968 790-1356): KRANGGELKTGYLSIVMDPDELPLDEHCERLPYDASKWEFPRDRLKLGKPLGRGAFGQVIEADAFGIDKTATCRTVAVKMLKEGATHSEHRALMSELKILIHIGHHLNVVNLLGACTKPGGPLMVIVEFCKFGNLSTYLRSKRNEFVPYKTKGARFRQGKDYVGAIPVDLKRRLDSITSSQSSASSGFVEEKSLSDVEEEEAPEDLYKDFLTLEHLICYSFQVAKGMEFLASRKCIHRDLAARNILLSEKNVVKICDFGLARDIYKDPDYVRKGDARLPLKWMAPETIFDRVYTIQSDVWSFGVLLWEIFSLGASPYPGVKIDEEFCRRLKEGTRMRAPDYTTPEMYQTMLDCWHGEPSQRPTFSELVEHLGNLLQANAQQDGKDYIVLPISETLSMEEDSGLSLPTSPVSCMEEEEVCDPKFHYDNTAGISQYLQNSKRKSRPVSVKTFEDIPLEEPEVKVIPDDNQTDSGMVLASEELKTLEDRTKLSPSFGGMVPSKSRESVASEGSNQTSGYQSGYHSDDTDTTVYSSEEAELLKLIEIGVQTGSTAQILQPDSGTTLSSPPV

Broadly, the IC50 is the concentration needed to halve the response being measured. Higher therefore signals lower potency. With `O=C(Nc1ccc(F)cc1)C1(C(=O)Nc2ccc(Oc3ccnc4cc(-c5cnn(CCN6CCOCC6)c5)ccc34)cc2)CC1` [Compound 19, 1-N′-(4-Fluorophenyl)-1-N-[4-[7-[1-(2-morpholin-4-ylethyl)pyrazol-4-yl]quinolin-4-yl]oxyphenyl]cyclopropane-1,1-dicarboxamide], the IC50 was 10 to 100 nM on KDR and no more than 10 nM on Human Axl.
For `O=C(Nc1ccc(F)cc1)C1(C(=O)Nc2ccc(Oc3ccnc4cc(-c5ccccn5)ccc34)cc2)CC1` [Compound 85, 1-N′-(4-Fluorophenyl)-1-N-[4-(7-pyridin-2-ylquinolin-4-yl)oxyphenyl]cyclopropane-1,1-dicarboxamide] the same measures were 10 to 100 nM and 10 to 100 nM.
For `O=C(Nc1ccc(F)cc1)C1(C(=O)Nc2ccc(Oc3ccnc4cc(-c5ncco5)ccc34)cc2)CC1` [Compound 66, 1-N′-(4-Fluorophenyl)-1-N-[4-[7-(1,3-oxazol-2-yl)quinolin-4-yl]oxyphenyl]cyclopropane-1,1-dicarboxamide] the same measures were 10 to 100 nM and 10 to 100 nM.
For `O=C(Nc1ccc(F)cc1)C1(C(=O)Nc2ccc(Oc3ccnc4cc(-c5cnn(CC(F)(F)F)c5)ccc34)cc2)CC1` [Compound 16, 1-N′-(4-Fluorophenyl)-1-N-[4-[7-[1-(2,2,2-trifluoroethyl)pyrazol-4-yl]quinolin-4-yl]oxyphenyl]cyclopropane-1,1-dicarboxamide] the same measures were 10 to 100 nM and 10 to 100 nM.
On to `CC(=O)N1CCC(n2cc(-c3ccc4c(Oc5ccc(NC(=O)C6(C(=O)Nc7ccc(F)cc7)CC6)cc5)ccnc4c3)cn2)CC1` [Compound 62, 1-N-[4-[7-[1-(1-Acetylpiperidin-4-yl)pyrazol-4-yl]quinolin-4-yl]oxyphenyl]-1-N′-(4-fluorophenyl)cyclopropane-1,1-dicarboxamide], for which the half-inhibitory concentration (IC50) against KDR was 10 to 100 nM; at Human Axl, no more than 10 nM.
For `O=C(Nc1ccc(F)cc1)C1(C(=O)Nc2ccc(Oc3ccnc4cc(-c5cnoc5)ccc34)cc2)CC1` [Compound 57, 1-N′-(4-Fluorophenyl)-1-N-[4-[7-(1,2-oxazol-4-yl)quinolin-4-yl]oxyphenyl]cyclopropane-1,1-dicarboxamide] the same measures were 10 to 100 nM and no more than 10 nM.
For `CS(=O)(=O)n1cc(-c2ccc3c(Oc4ccc(NC(=O)C5(C(=O)Nc6ccc(F)cc6)CC5)cc4)ccnc3c2)cn1` [Compound 79, 1-N′-(4-Fluorophenyl)-1-N-[4-[7-(1-methylsulfonylpyrazol-4-yl)quinolin-4-yl]oxyphenyl]cyclopropane-1,1-dicarboxamide] the same measures were 10 to 100 nM and no more than 10 nM.
As to `CC1Cc2cc(F)ccc2N1C(=O)C1(C(=O)Nc2ccc(Oc3ccnc4cc(-c5cnn(C)c5)ccc34)cc2)CC1` (centres unmarked) [Compound 80, 1-(5-Fluoro-2-methyl-2,3-dihydroindole-1-carbonyl)-N-[4-[7-(1-methylpyrazol-4-yl)quinolin-4-yl]oxyphenyl]cyclopropane-1-carboxamide], the IC50 on KDR was 100 to 1000 nM; at Human Axl, 10 to 100 nM.
For `COc1cc2c(Oc3ccc(NC(=O)C4(C(=O)Nc5ccc(F)cc5)CC4)cc3)ccnc2cc1-c1cnn(C)c1` [Compound 76, 1-N′-(4-Fluorophenyl)-1-N-[4-[6-methoxy-7-(1-methylpyrazol-4-yl)quinolin-4-yl]oxyphenyl]cyclopropane-1,1-dicarboxamide] the same measures were 10 to 100 nM and no more than 10 nM.
Take `O=C(Nc1ccc(F)cc1)C1(C(=O)Nc2ccc(Oc3ccnc4cc(-c5cnn(CCF)c5)ccc34)cc2)CC1` [Compound 14, 1-N-[4-[7-[1-(2-Fluoroethyl)pyrazol-4-yl]quinolin-4-yl]oxyphenyl]-1-N′-(4-fluorophenyl)cyclopropane-1,1-dicarboxamide]: the IC50 on KDR was 10 to 100 nM; against Human Axl it was no more than 10 nM.
For `Cc1noc(C)c1-c1ccc2c(Oc3ccc(NC(=O)C4(C(=O)Nc5ccc(F)cc5)CC4)cc3)ccnc2c1` [Compound 53, 1-N-[4-[7-(3,5-Dimethyl-1,2-oxazol-4-yl)quinolin-4-yl]oxyphenyl]-1-N′-(4-fluorophenyl)cyclopropane-1,1-dicarboxamide] the same measures were 10 to 100 nM and 100 to 1000 nM.
For `Cc1cc2c(Oc3ccc(NC(=O)C4(C(=O)Nc5ccc(F)cc5)CC4)cc3)ccnc2cc1-c1cnn(C)c1` [Compound 78, 1-N′-(4-Fluorophenyl)-1-N-[4-[6-methyl-7-(1-methylpyrazol-4-yl)quinolin-4-yl]oxyphenyl]cyclopropane-1,1-dicarboxamide], the IC50 is 10 to 100 nM at KDR and no more than 10 nM against Human Axl.
Regarding `O=C(Nc1ccc(F)cc1)C1(C(=O)Nc2ccc(Oc3ccnc4cc(-c5nnco5)ccc34)cc2)CC1` [Compound 73, 1-N′-(4-Fluorophenyl)-1-N-[4-[7-(1,3,4-oxadiazol-2-yl)quinolin-4-yl]oxyphenyl]cyclopropane-1,1-dicarboxamide], the half-inhibitory concentration (IC50) against KDR and at Human Axl was 10 to 100 nM in each case.
For `O=C(Nc1ccc(F)cc1)C1(C(=O)Nc2ccc(Oc3ccnc4cc(C5CCNC5)ccc34)cc2)CC1` (centres unmarked) [Compound 83, 1-N′-(4-Fluorophenyl)-1-N-[4-(7-pyrrolidin-3-ylquinolin-4-yl)oxyphenyl]cyclopropane-1,1-dicarboxamide], the 50% inhibitory concentration (IC50) against KDR and at Human Axl was 10 to 100 nM in each case.
As for `C[Si](C)(C)C#Cc1ccc2c(Oc3ccc(NC(=O)C4(C(=O)Nc5ccc(F)cc5)CC4)cc3)ccnc2c1` [Compound 63, 1-N′-(4-Fluorophenyl)-1-N-[4-[7-(2-trimethylsilylethynyl)quinolin-4-yl]oxyphenyl]cyclopropane-1,1-dicarboxamide], the IC50 against KDR and at Human Axl was 100 to 1000 nM in each case.
As for `Cn1ccnc1-c1ccc2c(Oc3ccc(NC(=O)C4(C(=O)Nc5ccc(F)cc5)CC4)cc3)ccnc2c1` [Compound 75, 1-N′-(4-Fluorophenyl)-1-N-[4-[7-(1-methylimidazol-2-yl)quinolin-4-yl]oxyphenyl]cyclopropane-1,1-dicarboxamide], the IC50 on KDR and against Human Axl was 10 to 100 nM in each case.
As to `O=C(Nc1ccc(F)cc1)C1(C(=O)Nc2ccc(Oc3ccnc4cc(-c5cn[nH]c5)ccc34)cc2)CC1` [Compound 67, 1-N′-(4-Fluorophenyl)-1-N-[4-[7-(1H-pyrazol-4-yl)quinolin-4-yl]oxyphenyl]cyclopropane-1,1-dicarboxamide], the IC50 was 10 to 100 nM on KDR and no more than 10 nM against Human Axl.
For `C#Cc1ccc2c(Oc3ccc(NC(=O)C4(C(=O)Nc5ccc(F)cc5)CC4)cc3)ccnc2c1` [Compound 64, 1-N-[4-(7-Ethynylquinolin-4-yl)oxyphenyl]-1-N′-(4-fluorophenyl)cyclopropane-1,1-dicarboxamide] the same measures were 10 to 100 nM and 10 to 100 nM.
For `Cn1cnc(-c2ccc3c(Oc4ccc(NC(=O)C5(C(=O)Nc6ccc(F)cc6)CC5)cc4)ccnc3c2)c1` [Compound 69, 1-N′-(4-Fluorophenyl)-1-N-[4-[7-(1-methylimidazol-4-yl)quinolin-4-yl]oxyphenyl]cyclopropane-1,1-dicarboxamide] the same measures were 10 to 100 nM and no more than 10 nM.
